Tested on: bleeding time
Details: rat, in vivo, 2 mg/kg

heparin
increase in the bleeding time: 13

From US5849721A, “Sulfated polysaccharides obtained from heparin, preparation process, pharmaceutical composition and use thereof” (Rhone-Poulenc Rorer S.A., priority 1992, dated 1998)
